Values after ≈ are worked out from the molar mass of the structure shown. Read-outs that look alike come from different tables or passages of the source.

Holding throughout (assay): MIC, microdilution broth method (NCCLS)
Holding throughout (type): cell-based

The test system of assay [1] is E. faecalis ATCC29212. As to conditions: Enterococcus faecalis, read-out: MIC Values, C: E. faecalis ATCC29212. As to the method:
(§1) Minimal inhibitory concentration (MIC) has been an indicator of in vitro antibacterial activity widely used in the art. The in vitro antimicrobial activity of the compounds was determined by the microdilution broth method following the test method from the National Committee for Clinical Laboratory Standards (NCCLS). This method is described in the NCCLS Document M7-A4, Vol.17, No.2, “Methods for Dilution Antimicrobial Susceptibility Test for Bacteria that Grow Aerobically—Fourth Edition”, which is incorporated herein by reference.
(§2) In this method two-fold serial dilutions of drug in cation adjusted Mueller-Hinton broth are added to wells in microdilution trays. The test organisms are prepared by adjusting the turbidity of actively growing broth cultures so that the final concentration of test organism after it is added to the wells is approximately 5×10^4 CFU/well.
(§3) Following inoculation of the microdilution trays, the trays are incubated at 35 °C for 16-20 hours and then read. […] The amount of growth in the wells containing the test compound is compared with the amount of growth in the growth-control wells (no test compound) used in each tray. As set forth in Table 1, compounds of the present invention were tested against a variety of Gram positive and Gram negative pathogenic bacteria resulting in a range of activities depending on the organism tested.

Assay [2] relates to S. aureus ATCC29213. Conditions: Staphylococcus aureus, read-out: MIC Values, B: S. aureus ATCC29213. As to the method: as §1, §2, §3
For assay [3], the system named is S. pneumoniae ATCC49619. Conditions: Streptococcus pneumoniae, read-out: MIC Values, D: S. pneumoniae ATCC49619. As to the method:
as §1, §2, §3

Setting [4] is: Table 3, 6-Carbonate Macrolide Derivatives.
Where [5] appears, read: Table 2, 3,6-Dicarbamoyl Macrolide Derivatives.
[6] abbreviates: Table 1, 6-Carbamoyl-3-Acyl Macrolide Derivatives.

In the case of `CC[C@H]1OC(=O)[C@H](C)[C@@H](OC(=O)Cc2cccnc2)[C@H](C)[C@@H](O[C@@H]2O[C@H](C)C[C@H](N(C)C)[C@H]2O)[C@](C)(OC(=O)OC/C=C/c2ccc(-c3cnccn3)cc2)C[C@@H](C)C(=O)[C@H](C)[C@H]2NC(=O)O[C@@]21C` [Compound 77], the results for the MIC in assay [1] (setting [4]), in assay [2] (setting [4]) and in assay [3] (setting [4]) were 0.5 µg/mL (≈ 0.522 µM), 1 µg/mL (≈ 1.04 µM) and 0.06 µg/mL (≈ 0.0626 µM), respectively.
Turning to `CC[C@H]1OC(=O)[C@H](C)[C@@H](OC(=O)C(C)C)[C@H](C)[C@@H](O[C@@H]2O[C@H](C)C[C@H](N(C)C)[C@H]2O)[C@](C)(OC(=O)OC/C=C/c2cnc3ccccc3c2)C[C@@H](C)C(=O)[C@H](C)[C@H]2NC(=O)O[C@@]21C` [Compound 86], the MIC worked out at 0.5 µg/mL (≈ 0.567 µM) in assay [1] (setting [4]), 1 µg/mL (≈ 1.13 µM) in assay [2] (setting [4]) and 0.06 µg/mL (≈ 0.068 µM) in assay [3] (setting [4]).
In the case of `CC[C@H]1OC(=O)[C@H](C)[C@@H](OC(=O)Cc2cccnc2)[C@H](C)[C@@H](O[C@@H]2O[C@H](C)C[C@H](N(C)C)[C@H]2O)[C@](C)(OC(=O)OC/C=C/c2cnc3ccccc3c2)C[C@@H](C)C(=O)[C@H](C)[C@H]2NC(=O)O[C@@]21C` [Compound 80], the MIC in assay [1] (setting [4]) was found to be 0.5 µg/mL (≈ 0.537 µM); in assay [2] (setting [4]), 1 µg/mL (≈ 1.07 µM); in assay [3] (setting [4]), 0.06 µg/mL (≈ 0.0644 µM).
Consider `CC[C@H]1OC(=O)[C@H](C)[C@@H](OC(=O)N(CC)CC)[C@H](C)[C@@H](O[C@@H]2O[C@H](C)C[C@H](N(C)C)[C@H]2O)[C@](C)(OC(=O)NC/C=C/c2ccc(-c3ccn(C)n3)cc2)C[C@@H](C)C(=O)[C@H](C)[C@H]2NC(=O)O[C@@]21C` [Compound 73], for which the MIC in assay [1] (setting [5]) was 0.5 µg/mL (≈ 0.532 µM); in assay [2] (setting [5]), 1 µg/mL (≈ 1.06 µM); in assay [3] (setting [5]) it was 0.12 µg/mL (≈ 0.128 µM).
For the compound `CC[C@H]1OC(=O)[C@H](C)[C@@H](OC(=O)C(C)C)[C@H](C)[C@@H](O[C@@H]2O[C@H](C)C[C@H](N(C)C)[C@H]2O)[C@](C)(OC(=O)NC/C=C/C=C/c2cnc(C(C)C)nc2)C[C@@H](C)C(=O)[C@H](C)[C@H]2NC(=O)O[C@@]21C` [Compound 44], the MIC in assay [1] (setting [6]) worked out at 2 µg/mL (≈ 2.22 µM); in assay [2] (setting [6]) it was 2 µg/mL (≈ 2.22 µM); in assay [3] (setting [6]), 0.25 µg/mL (≈ 0.278 µM).
Take `CC[C@H]1OC(=O)[C@H](C)[C@@H](OC(=O)Cc2cccnc2)[C@H](C)[C@@H](O[C@@H]2O[C@H](C)C[C@H](N(C)C)[C@H]2O)[C@](C)(OC(=O)OC/C=C/c2ccc(-c3ncccn3)cc2)C[C@@H](C)C(=O)[C@H](C)[C@H]2NC(=O)O[C@@]21C` [Compound 78]: the values for the MIC in assay [1] (setting [4]), in assay [2] (setting [4]) and in assay [3] (setting [4]) were 0.25 µg/mL (≈ 0.261 µM), 0.25 µg/mL (≈ 0.261 µM) and 0.03 µg/mL (≈ 0.0313 µM), respectively.
With `CC[C@H]1OC(=O)[C@H](C)[C@@H](OC(=O)N(CC)CC)[C@H](C)[C@@H](O[C@@H]2O[C@H](C)C[C@H](N(C)C)[C@H]2O)[C@](C)(OC(=O)NC/C=C/c2ccc(-c3cnccn3)cc2)C[C@@H](C)C(=O)[C@H](C)[C@H]2NC(=O)O[C@@]21C` [Compound 69], the values for the minimum inhibitory concentration (MIC) in assay [1] (setting [5]), in assay [2] (setting [5]) and in assay [3] (setting [5]) were 0.5 µg/mL (≈ 0.534 µM), 0.5 µg/mL (≈ 0.534 µM) and 0.06 µg/mL (≈ 0.064 µM), respectively.
Regarding `CC[C@H]1OC(=O)[C@H](C)[C@@H](OC(=O)N(C)OC)[C@H](C)[C@@H](O[C@@H]2O[C@H](C)C[C@H](N(C)C)[C@H]2O)[C@](C)(OC(=O)NC/C=C/c2ccc(-c3ncccn3)cc2)C[C@@H](C)C(=O)[C@H](C)[C@H]2NC(=O)O[C@@]21C` [Compound 68], the MIC turned out to be 0.5 µg/mL (≈ 0.54 µM) in assay [1] (setting [5]), 1 µg/mL (≈ 1.08 µM) in assay [2] (setting [5]) and 0.06 µg/mL (≈ 0.0649 µM) in assay [3] (setting [5]).
Consider `CC[C@H]1OC(=O)[C@H](C)[C@@H](OC(=O)N(CC)CC)[C@H](C)[C@@H](O[C@@H]2O[C@H](C)C[C@H](N(C)C)[C@H]2O)[C@](C)(OC(=O)OC/C=C/c2ccc(-c3cccnn3)cc2)C[C@@H](C)C(=O)[C@H](C)[C@H]2NC(=O)O[C@@]21C` [Compound 83, Carbonic acid, (3aS,4R,7R,8S,9S,10R,11R,13R,15R,15aR)-8-[[(diethylamino)carbonyl]oxy]-4-ethyltetradecahydro-3a,7,9,11,13,15-hexamethyl-2,6,14-trioxo-10-[[3,4,6-trideoxy-3-(dimethylamino)-β-D-xylo-hexopyranosyl]oxy]-2H-oxacyclotetradecino[4,3-d]oxazol-11-yl(2E)-3-[4-(3-pyridazinyl)phenyl]-2-propenyl ester], for which the values for the minimum inhibitory concentration (MIC) in assay [1] (setting [4]), in assay [2] (setting [4]) and in assay [3] (setting [4]) were 0.5 µg/mL (≈ 0.533 µM), 1 µg/mL (≈ 1.07 µM) and 0.06 µg/mL (≈ 0.064 µM), respectively.
On to `CC[C@H]1OC(=O)[C@H](C)[C@@H](OC(=O)Cc2cccnc2)[C@H](C)[C@@H](O[C@@H]2O[C@H](C)C[C@H](N(C)C)[C@H]2O)[C@](C)(OC(=O)OC/C=C/c2ccc(-c3cccnn3)cc2)C[C@@H](C)C(=O)[C@H](C)[C@H]2NC(=O)O[C@@]21C` [Compound 79, 3-Pyridineacetic acid, (3aS,4R,7R,8S,9S,10R,11R,13R,15R,15aR)-4-ethyltetradecahydro-3a,7,9,11,13,15-hexamethyl-2,6,14-trioxo-11-[[[[(2E)-3-[4-(3-pyridazinyl)phenyl]-2-propenyl]oxy]carbonyl]oxy]-10-[[3,4,6-trideoxy-3-(dimethylamino)-β-D-xylo-hexopyranosyl]oxy]-2H-oxacyclotetradecino[4,3-d]oxazol-8-yl ester], for which the minimum inhibitory concentration (MIC) came out at 0.5 µg/mL (≈ 0.522 µM) in assay [1] (setting [4]), 1 µg/mL (≈ 1.04 µM) in assay [2] (setting [4]) and 0.06 µg/mL (≈ 0.0626 µM) in assay [3] (setting [4]).
On to `CC[C@H]1OC(=O)[C@H](C)[C@@H](OC(=O)N(CC)CC)[C@H](C)[C@@H](O[C@@H]2O[C@H](C)C[C@H](N(C)C)[C@H]2O)[C@](C)(OC(=O)NC/C=C/c2ccc(-n3cncn3)cc2)C[C@@H](C)C(=O)[C@H](C)[C@H]2NC(=O)O[C@@]21C` [Compound 72], for which the minimum inhibitory concentration (MIC) in assay [1] (setting [5]) turned out to be 0.5 µg/mL (≈ 0.54 µM); in assay [2] (setting [5]), 0.5 µg/mL (≈ 0.54 µM); in assay [3] (setting [5]), 0.06 µg/mL (≈ 0.0648 µM).
Consider `CC[C@H]1OC(=O)[C@H](C)[C@@H](OC(=O)C(C)C)[C@H](C)[C@@H](O[C@@H]2O[C@H](C)C[C@H](N(C)C)[C@H]2O)[C@](C)(OC(=O)NC/C=C/c2ccc(-c3cccnn3)cc2)C[C@@H](C)C(=O)[C@H](C)[C@H]2NC(=O)O[C@@]21C` [Compound 46], for which the minimal inhibitory concentration (MIC) turned out to be 0.12 µg/mL (≈ 0.132 µM) in assay [1] (setting [6]), 0.5 µg/mL (≈ 0.551 µM) in assay [2] (setting [6]) and 0.06 µg/mL (≈ 0.0661 µM) in assay [3] (setting [6]).
With `CC[C@H]1OC(=O)[C@H](C)[C@@H](OC(=O)C(C)C)[C@H](C)[C@@H](O[C@@H]2O[C@H](C)C[C@H](N(C)C)[C@H]2O)[C@](C)(OC(=O)NC/C=C/c2ccc(-c3cnccn3)cc2)C[C@@H](C)C(=O)[C@H](C)[C@H]2NC(=O)O[C@@]21C` [Compound 45], the MIC in assay [1] (setting [6]) turned out to be 0.5 µg/mL (≈ 0.551 µM); in assay [2] (setting [6]), 0.5 µg/mL (≈ 0.551 µM); in assay [3] (setting [6]), 0.06 µg/mL (≈ 0.0661 µM).
Consider `CC[C@H]1OC(=O)[C@H](C)[C@@H](OC(=O)N(CC)CC)[C@H](C)[C@@H](O[C@@H]2O[C@H](C)C[C@H](N(C)C)[C@H]2O)[C@](C)(OC(=O)NC/C=C/c2ccc(-c3cccnn3)cc2)C[C@@H](C)C(=O)[C@H](C)[C@H]2NC(=O)O[C@@]21C` [Compound 71], for which the MIC was found to be 1 µg/mL (≈ 1.07 µM) in assay [1] (setting [5]), 1 µg/mL (≈ 1.07 µM) in assay [2] (setting [5]) and 0.06 µg/mL (≈ 0.064 µM) in assay [3] (setting [5]).
`CC[C@H]1OC(=O)[C@H](C)[C@@H](OC(=O)C(C)C)[C@H](C)[C@@H](O[C@@H]2O[C@H](C)C[C@H](N(C)C)[C@H]2OC(C)=O)[C@](C)(OC(=O)NC/C=C/c2ccc(-n3cccn3)cc2)C[C@@H](C)C(=O)[C@H](C)[C@H]2NC(=O)O[C@@]21C` [Compound 48]: the values for the MIC in assay [1] (setting [6]), in assay [2] (setting [6]) and in assay [3] (setting [6]) were 0.5 µg/mL (≈ 0.533 µM), 1 µg/mL (≈ 1.07 µM) and 0.06 µg/mL (≈ 0.064 µM), respectively.
Regarding `CC[C@H]1OC(=O)[C@H](C)[C@@H](OC(=O)Cc2cccnc2)[C@H](C)[C@@H](O[C@@H]2O[C@H](C)C[C@H](N(C)C)[C@H]2O)[C@](C)(OC(=O)OCC#Cc2ccc(-c3ncccn3)cc2)C[C@@H](C)C(=O)[C@H](C)[C@H]2NC(=O)O[C@@]21C` [Compound 81], the figures for the minimum inhibitory concentration (MIC) in assay [1] (setting [4]), in assay [2] (setting [4]) and in assay [3] (setting [4]) were 0.25 µg/mL (≈ 0.261 µM), 0.5 µg/mL (≈ 0.523 µM) and 0.06 µg/mL (≈ 0.0628 µM), respectively.

The record behind these values is patent US6825172B2, “3-descladinosyl-6-O-carbamoyl and 6-O-carbonoyl macrolide antibacterial agents” (Janssen Pharmaceutica, NV, priority 2002, dated 2004).
